Measurements taken from article PMC5253077 (Acta biomaterialia, 2016).
Values after ≈ are worked out from the molar mass of the structure shown. Square brackets hold non-standard residues; d marks the D form. Peptide text beside a SMILES is read from it.

Legend:
HeLa CCL-2 cells = format: cell-based, human
E. coli ATCC 35218 = settings: cited from earlier work
[1] = test system: E. coli ATCC 25922 and ML-35p strains; settings: cited from earlier work
S. aureus ATCC 25923 = settings: cited from earlier work
B. megaterium = settings: cited from earlier work
E. coli K12 = format: cell-based, Escherichia coli; settings: K12, 20 h
C. glabrata ATCC 2001 = format: cell-based, Candida glabrata; settings: ATCC 2001, 48 h
C. tropicalis ATCC 13803 = format: cell-based, Candida tropicalis; settings: ATCC 13803, 48 h
Human HeLa (HeLa CCL-2) = assay: MTS cytotoxicity assay; format: cell-based
Human HaCaT = assay: MTS cytotoxicity assay; format: cell-based; settings: skin keratinocytes
Chicken RBCs = assay: Hemolytic assay; format: cell-based; settings: 2% blood cells in PBS, 37°C, one hour, hemoglobin at 545 nm
S. epidermidis 1457 = format: cell-based, Staphylococcus epidermidis; settings: 1457, 20 h
Human HEK293 = assay: MTS cytotoxicity assay; format: cell-based; settings: kidney cells
[2] = test system: Candida albicans ATCC 10231; format: cell-based; settings: ATCC 10231, 48 h
S. aureus USA300 [3] = format: cell-based, Staphylococcus aureus; settings: USA300, 20 h
Porcine RBCs = assay: Hemolytic assay; format: cell-based, pig; settings: 2% blood cells in PBS, 37°C, one hour, hemoglobin at 545 nm
B. subtilis 168 = format: cell-based, Bacillus subtilis; settings: 168, 20 h
S. aureus USA300 [4] = format: cell-based, Staphylococcus aureus

SMILES	MIC E. coli K12 (E. coli K12)	MIC Candida glabrata (C. glabrata ATCC 2001)	MIC Candida tropicalis (C. tropicalis ATCC 13803)	MIC S. epidermidis 1457 (S. epidermidis 1457)	MIC Candida albicans [2]	MIC S. aureus USA300 (S. aureus USA300 [3])	MIC against S. aureus USA300, 150 mM NaCl (S. aureus USA300 [3])	MIC against S. aureus USA300, pH 6.8 (S. aureus USA300 [3])	MIC against S. aureus USA300, Normal medium (pH 7.4) (S. aureus USA300 [3])	MIC against S. aureus USA300, pH 8 (S. aureus USA300 [3])	MIC B. subtilis 168 (B. subtilis 168)	MBC S. aureus USA300 (S. aureus USA300 [4])	further results
CC[C@H](C)[C@H](NC(=O)[C@H](CCCNC(=N)N)NC(=O)[C@H](CCCNC(=N)N)NC(=O)[C@H](CC(C)C)NC(=O)[C@H](Cc1c[nH]c2ccccc12)NC(=O)[C@H](Cc1c[nH]c2ccccc12)NC(=O)[C@H](Cc1c[nH]c2ccccc12)NC(=O)[C@@H](N)CS)C(=O)N[C@@H](Cc1c[nH]c2ccccc12)C(=O)O [CysTetraF2W-RR] (H-CWWWLRRIW-OH)	–	–	–	–	–	–	–	–	–	–	–	–	cytotoxicity of free peptide to HeLa CCL-2 cells (HeLa CCL-2 cells): nontoxic
CC[C@H](C)[C@H](NC(=O)[C@H](CCCNC(=N)N)NC(=O)[C@H](CO)NC(=O)[C@H](CC(C)C)NC(=O)[C@H](Cc1ccccc1)NC(=O)[C@H](Cc1ccccc1)NC(=O)[C@@H](N)Cc1ccccc1)C(=O)N[C@@H](Cc1ccccc1)C(N)=O [Temporin-SHf] (H-FFFLSRIF-NH2; N-terminus and C-terminus assumed)	–	–	–	–	–	–	–	–	–	–	–	–	MIC E. coli ATCC 35218 (E. coli ATCC 35218): > 200 µM; MIC E. coli ATCC 25922 and ML-35p strains [1]: 25 to 30 µM; MIC S. aureus ATCC 25923 (S. aureus ATCC 25923): 12.5 µM (≈ 13.4 µg/mL); MIC B. megaterium (B. megaterium): 3 µM (≈ 3.23 µg/mL)
CC[C@H](C)[C@H](NC(=O)[C@H](CCCCN)NC(=O)[C@H](CCCCN)NC(=O)[C@H](CC(C)C)NC(=O)[C@H](Cc1c[nH]c2ccccc12)NC(=O)[C@H](Cc1c[nH]c2ccccc12)NC(=O)[C@@H](N)Cc1c[nH]c2ccccc12)C(=O)N[C@@H](Cc1c[nH]c2ccccc12)C(=O)O [TetraF2W-KK] (H-WWWLKKIW-OH)	12.5 to 25 µM	6.2 to 12.5 µM	1.6 µM (≈ 1.99 µg/mL)	6.2 µM (≈ 7.72 µg/mL)	6.2 µM (≈ 7.72 µg/mL)	3.1 to 6.2 µM	3.1 to 6.2 µM	12.5 μM	3.1–6.2 μM	3.1 μM	6.2 µM (≈ 7.72 µg/mL)	>25 µM	LC50 Human HeLa (Human HeLa (HeLa CCL-2)): 70 µM; LC50 Human HaCaT (Human HaCaT): 50 µM; LC50 (50% hemolytic concentration) Chicken RBCs (Chicken RBCs): 50 µM; LC50 Human HEK293 (Human HEK293): 50 µM; LC50 (50% hemolytic concentration) Porcine RBCs (Porcine RBCs): 55 µM
CC[C@H](C)[C@H](NC(=O)[C@H](CCCNC(=N)N)NC(=O)[C@H](CCCCN)NC(=O)[C@H](CC(C)C)NC(=O)[C@H](Cc1c[nH]c2ccccc12)NC(=O)[C@H](Cc1c[nH]c2ccccc12)NC(=O)[C@@H](N)Cc1c[nH]c2ccccc12)C(=O)N[C@@H](Cc1c[nH]c2ccccc12)C(=O)O [TetraF2W-KR] (H-WWWLKRIW-OH)	12.5 to 25 µM	12.5 µM (≈ 15.9 µg/mL)	3.1 to 6.2 µM	12.5 µM (≈ 15.9 µg/mL)	12.5 µM (≈ 15.9 µg/mL)	3.1 µM (≈ 3.95 µg/mL)	3.1 µM (≈ 3.95 µg/mL)	6.2 μM	3.1 μM	3.1 μM	6.2 µM (≈ 7.9 µg/mL)	12.5 µM (≈ 15.9 µg/mL)	LC50 Human HeLa (Human HeLa (HeLa CCL-2)): 100 µM; LC50 Human HaCaT (Human HaCaT): 60 µM; LC50 (50% hemolytic concentration) Chicken RBCs (Chicken RBCs): 35 µM; LC50 Human HEK293 (Human HEK293): 55 µM; LC50 (50% hemolytic concentration) Porcine RBCs (Porcine RBCs): 50 µM
CC[C@@H](C)[C@@H](NC(=O)[C@@H](CCCCN)NC(=O)[C@@H](CCCNC(=N)N)NC(=O)[C@@H](CC(C)C)NC(=O)[C@@H](Cc1c[nH]c2ccccc12)NC(=O)[C@@H](Cc1c[nH]c2ccccc12)NC(=O)[C@H](N)Cc1c[nH]c2ccccc12)C(=O)N[C@H](Cc1c[nH]c2ccccc12)C(=O)O [TetraF2W-RK-d] (H-[dW][dW][dW][dL][dR][dK][dI][dW]-OH)	6.2 µM (≈ 7.9 µg/mL)	–	–	6.2 µM (≈ 7.9 µg/mL)	–	3.1 µM (≈ 3.95 µg/mL)	–	–	–	–	3.1 µM (≈ 3.95 µg/mL)	12.5 µM (≈ 15.9 µg/mL)	–
CC[C@H](C)[C@H](NC(=O)[C@H](CCCCN)NC(=O)[C@H](CCCNC(=N)N)NC(=O)[C@H](CC(C)C)NC(=O)[C@H](Cc1c[nH]c2ccccc12)NC(=O)[C@H](Cc1c[nH]c2ccccc12)NC(=O)[C@@H](N)Cc1c[nH]c2ccccc12)C(=O)N[C@@H](Cc1c[nH]c2ccccc12)C(=O)O [TetraF2W-RK] (H-WWWLRKIW-OH)	25 µM (≈ 31.8 µg/mL)	12.5 µM (≈ 15.9 µg/mL)	3.1 to 6.2 µM	6.2 µM (≈ 7.9 µg/mL)	12.5 µM (≈ 15.9 µg/mL)	3.1 µM (≈ 3.95 µg/mL)	3.1 µM (≈ 3.95 µg/mL)	6.2 μM	3.1 μM	3.1 μM	6.2 µM (≈ 7.9 µg/mL)	12.5 µM (≈ 15.9 µg/mL)	–
CC[C@H](C)[C@H](NC(=O)[C@H](CCCNC(=N)N)NC(=O)[C@H](CO)NC(=O)[C@H](CC(C)C)NC(=O)[C@H](Cc1c[nH]c2ccccc12)NC(=O)[C@H](Cc1c[nH]c2ccccc12)NC(=O)[C@@H](N)Cc1c[nH]c2ccccc12)C(=O)N[C@@H](Cc1c[nH]c2ccccc12)C(=O)O [TetraF2W] (H-WWWLSRIW-OH)	>100 µM	–	–	>50 µM	–	3.1 to 6.2 µM	–	–	–	–	6.2 µM (≈ 7.64 µg/mL)	6.2 µM (≈ 7.64 µg/mL)	–
